The results in this text go back to publication PMC8455565 (Scientific Reports, 2021).

One assay has as its system CTLL-2. Description: IL-2 induced T cell proliferation in CTLL-2. Type of assay: cell-based. The conditions noted are these: Mus musculus, cellular level.
Assay [1] has as its target T1, BTK (Homo sapiens, UniProt Q06187). Put plainly: BTK occupancy in whole blood ex vivo. Type of assay: cell-based. The arrangement: from tissue; host or cells: whole blood.
For assay [2], the system named is B cells. Put plainly: B cell inhibition in whole blood. Type of assay: cell-based.
In assay [3] the target is T1, BTK. Put plainly: hBTK Lanthascreen biochemical activity. In general terms: Time-resolved FRET reads energy transfer from a long-lived donor to a nearby acceptor.
For a further assay, the target named is T2, JAK3 (Homo sapiens, UniProt P52333).
T2 sequence (P52333 1-1124): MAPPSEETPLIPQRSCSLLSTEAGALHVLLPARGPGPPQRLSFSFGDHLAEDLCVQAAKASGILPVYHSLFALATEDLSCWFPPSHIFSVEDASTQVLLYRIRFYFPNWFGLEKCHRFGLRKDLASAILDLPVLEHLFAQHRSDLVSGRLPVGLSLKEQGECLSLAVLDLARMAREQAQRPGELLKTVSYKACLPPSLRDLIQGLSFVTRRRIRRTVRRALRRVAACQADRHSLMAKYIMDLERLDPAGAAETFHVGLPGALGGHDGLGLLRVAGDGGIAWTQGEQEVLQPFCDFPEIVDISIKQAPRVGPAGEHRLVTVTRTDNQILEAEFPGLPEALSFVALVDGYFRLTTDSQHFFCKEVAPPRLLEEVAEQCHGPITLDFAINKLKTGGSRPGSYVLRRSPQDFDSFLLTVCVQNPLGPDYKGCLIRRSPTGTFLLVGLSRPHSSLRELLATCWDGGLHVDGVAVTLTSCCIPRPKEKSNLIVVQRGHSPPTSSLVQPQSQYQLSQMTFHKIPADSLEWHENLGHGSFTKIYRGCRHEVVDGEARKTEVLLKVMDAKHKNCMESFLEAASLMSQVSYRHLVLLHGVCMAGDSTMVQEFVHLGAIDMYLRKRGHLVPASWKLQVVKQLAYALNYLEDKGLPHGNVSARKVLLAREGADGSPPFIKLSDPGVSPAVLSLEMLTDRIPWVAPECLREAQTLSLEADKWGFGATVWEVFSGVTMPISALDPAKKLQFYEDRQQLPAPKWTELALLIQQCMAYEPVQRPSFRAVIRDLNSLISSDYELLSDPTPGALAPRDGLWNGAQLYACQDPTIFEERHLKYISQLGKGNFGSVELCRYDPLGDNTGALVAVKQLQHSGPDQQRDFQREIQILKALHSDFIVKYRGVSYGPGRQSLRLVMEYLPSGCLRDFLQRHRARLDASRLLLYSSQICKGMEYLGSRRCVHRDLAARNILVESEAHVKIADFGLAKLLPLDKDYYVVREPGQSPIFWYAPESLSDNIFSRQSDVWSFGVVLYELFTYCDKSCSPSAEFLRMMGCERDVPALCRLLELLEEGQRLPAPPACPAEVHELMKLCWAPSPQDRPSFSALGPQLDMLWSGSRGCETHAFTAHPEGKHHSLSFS
Description: Kinase selectivity biochemical assay, JAK3. The conditions noted are these: biochemical assay.

Assay [4] has as its target T1, BTK. Description: BTK occupancy in B cell line (Ramos cells, biotinylated probe, AlphaScreen). Type of assay: cell-based. On the procedure: A total of 5 × 10^5 Ramos cells/well were plated in 96-well PDL-coated plates in DMEM with high glucose (GIBCO) supplemented with 10% FBS. Serial dilutions of LY3439943 in DMSO (final DMSO concentration, 0.4%) were incubated with the cells for 1 h at 37 °C. An equal volume of a covalent biotinylated BTK probe was added (final concentration, 167 nM), and the cells were incubated for another 1 h at 37 °C. The cells were lysed, and the amount of BTK was determined using the AlphaScreen IgG Detection Kit (Perkin Elmer 6760617R) and an anti-BTK antibody (Thermo Scientific Cat# MA5-14929) following the manufacturer’s instructions. The signal was measured at 615 nm with an Envision plate reader (Perkin Elmer).
(In general: In Alpha technology, singlet oxygen from a donor bead excites a nearby acceptor bead.)

For assay [5], the target named is T1, BTK. Put plainly: Kinase selectivity biochemical assay (FRET), BTK. The conditions noted are these: Supplementary Table 1, biochemical assay.
The test system of assay [6] is B cells. Description: Antigen-presentation assay (OVA-preactivated B cells with DO11.10 T cells). Type of assay: cell-based, mouse. On the procedure: DO11.10 and BALB/C mice were purchased from The Jackson Laboratory and housed in accordance with the policies of the IACUC of Eli Lilly and Company. BALB/C mice were primed with 10 µg/ml ovalbumin (OVA) in Alhydrogel (InvivoGen, CA, USA) at a 2:1 ratio and boosted with 10 µg/ml OVA in PBS 2 weeks after priming. BALB/C mice were sacrificed 4 days after boosting, and B cells were purified from splenocytes using CD19 microbeads (Miltenyi Biotec) for positive selection. B cells were preincubated with HM71305/LSN3359180 for 1 h before the addition of OVA protein or OVA323-339 peptide, and T cells were positively isolated from DO11.10 transgenic mice using CD4 microbeads (Miltenyi Biotec). The supernatants were collected after 18 h, and IL-2 was measured by ELISA using mouse IL-2 DuoSet (DY402, R&D Systems). FACS analysis of CD69 (H1.2F3, Biolegend), CD86 (B7-2, BD Biosciences) and H2-IA/IE (M5/114.15.3, BD Biosciences) was performed using BD LSR Fortessa, and data were analyzed by FlowJo10 (FlowJo, LLC).

Another assay deals with A431. Description: Cell growth inhibition in EGFR overexpressed A431. Type of assay: cell-based. The conditions noted are these: Homo sapiens, A-431; cellular level; read-out: IC50, cell growth inhibition in EGFR overexppressed A431.

T1 sequence (Q06187 whole entry): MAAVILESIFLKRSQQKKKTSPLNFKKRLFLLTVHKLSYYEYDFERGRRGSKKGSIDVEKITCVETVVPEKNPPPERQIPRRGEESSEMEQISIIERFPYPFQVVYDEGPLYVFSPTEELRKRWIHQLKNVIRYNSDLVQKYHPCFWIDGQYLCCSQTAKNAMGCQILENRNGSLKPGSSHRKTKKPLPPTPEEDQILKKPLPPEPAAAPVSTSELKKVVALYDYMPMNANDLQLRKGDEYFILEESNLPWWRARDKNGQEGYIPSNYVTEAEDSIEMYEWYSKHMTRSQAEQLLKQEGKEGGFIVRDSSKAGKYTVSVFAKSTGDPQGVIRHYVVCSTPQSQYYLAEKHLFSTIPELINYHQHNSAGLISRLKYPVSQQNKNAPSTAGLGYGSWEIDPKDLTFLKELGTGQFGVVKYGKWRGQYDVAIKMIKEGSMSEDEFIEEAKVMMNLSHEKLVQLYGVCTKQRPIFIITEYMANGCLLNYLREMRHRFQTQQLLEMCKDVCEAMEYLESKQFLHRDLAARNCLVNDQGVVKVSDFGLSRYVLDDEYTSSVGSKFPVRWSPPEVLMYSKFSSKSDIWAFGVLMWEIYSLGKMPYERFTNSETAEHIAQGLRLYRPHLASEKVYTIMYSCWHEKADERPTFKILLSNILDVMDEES

For `C=CC(=O)Nc1cccc(Oc2nc(Nc3ccc(N4CCN(C(C)C)CC4)cc3)nc3ccoc23)c1` [HM71035], the IC50 (as a rule, the concentration at which inhibition is half-maximal) was above 500 nM in the assay with CTLL-2; 170 nM on BTK [1]; 440 nM in the assay with B cells [2]; 3 nM against BTK [3]; 39 nM against JAK3; 6 nM against BTK [4]. In addition, the IC50 was 3 nM against BTK [5]; around 100 nM in the assay with B cells [6] (Mus musculus, B-cell, in vivo preactivated B cells, roughly, read-out: IC50 effect on the B cells (CD80 and CD86 expression)); above 500 nM in the assay with A431. Moreover, in the assay with B cells [6] (B cells preincubated 1 h with compound, coculture with DO11.10 T cells), the “B cell-dependent T cell activation (IL-2 secretion, CD69 expression on T cells)” value is listed as “reduced in a dose-dependent fashion”.
